Laboratory results from patent US8685919B2 (Zealand Pharma A/S, priority 2008, dated 2014).
“Also recorded” adds a separate entry of the source. Like-named read-outs stand apart in the source and are kept apart here. Peptide text beside a SMILES is read from it.

Tests used:
human GLP-1-R = target: T1, human GLP-1-R (Homo sapiens, UniProt P43220); test: GLP-1-receptor efficacy assay (cAMP in HEK293 cells); type: cell-based
T1 construct: expressed in transfected cells
Protocol: The 5′-end primers additionally encoded a near Kozak consensus sequence to ensure efficient translation.
48 hr after transfection cells were seeded for limited dilution cloning and selected with 1 mg/ml G418 in the culture medium.
On the day of analysis, growth medium was removed and the cells washed once with 200 μl Tyrode buffer. Cells were incubated in 100 μl Tyrode buffer containing increasing concentrations of test peptides, 100 μM IBMX, and 6 mM glucose for 15 min at 37° C. The reaction was stopped by addition of 25 μl 0.5 M HCl and incubated on ice for 60 min. The cAMP content was estimated using the FlashPlate® cAMP kit from Perkin-Elmer.

[1] = test system: primary rat adipocyte cultures; type: cell-based
Protocol: Adipocytes were isolated from epididymal fat dissected from normal young adult Sprague-Dawley rats. The fat lumps were minced, incubated and shaken (220 rpm) with collagenase (1 mg/ml) in Krebs-Ringer buffer containing 4% BSA (KRB-BSA) for 60 minutes at 37° C. The suspension was filtered through a nylon filter (160 μm pore size) and the filtrate centrifuged at 200×g for 3 min. The subjacent medium beneath the upper floating layer of adipocytes was removed with a Pasteur-pipette. The adipocytes were washed 3 times in KRB-BSA buffer by re-suspension and centrifugation. The adipocytes were re-suspended in KRB-BSA, mixed, incubated in and shaken with test compounds in 96-deep well plates (50,000 cells/well) in a total volume of 1 ml at 37° C. for 60 min. The plates were placed on ice for at least 10 min after incubation followed by centrifugation at 200×g for 3 min. 300 μl of the buffer beneath the adipocyte layer were collected in a 96-deep well plate. This process was repeated two more times and the 3 extracts collected from each culture pooled together.

C57BI/6 mice = test: Food intake in normal mice; type: in vivo; conditions: fasted mice, s.c.; PYY3-36 30 nmol/kg, glucagon 500 nmol/kg, ZP2669 500 nmol/kg
From the text: Differences were considered significant at the p<0.05 level.

[2] = test system: diet induced obese (DIO) mice; test: 28 day treatment of DIO mice: plasma cholesterols (cholesterol, HDL, LDL); type: in vivo; conditions: DIO mice treated 4 weeks b.i.d., compared to vehicle
Protocol: Four weeks before drug treatments, C57BI/6 male mice (7 weeks)) (N=10-12 animals in each group) were put on high fat diet (HFD) and their day-night cycle reversed with lights On/Off at 2000/0800 hour. Experimental animals were conditioned to treatment by daily injections (s.c.) of 0.1 ml vehicle and acclimatized to handling by weighing them twice a week one week before start of drug administrations. […] A non-obese control group maintained on regular chow was treated with vehicle in the same treatment regime as the DIO groups. Body weights were recorded daily and used to administer the body weight-corrected doses of peptide throughout the study. Animals were fasted overnight before sacrifice. An eye blood sample (0.6 ml EDTA) was obtained the following morning immediately before cervical dislocation. Blood plasma samples were stored at −80° C. until analyzed for cholesterol, HDL and LDL using commercially available kits. Body weight gains throughout the treatment period were calculated for each animal by subtracting its weight at the initiation of treatment.
The effects of treatment on body weight gain and cholesterols were assessed by 2-way ANOVA with repeated measures and Bonferoni post-hoc analyses, using GraphPad Prism version 4. Differences were considered significant at the p<0.05 level.

[3] = test system: diet induced obese (DIO) mice; test: 28 day treatment of diet induced obese (DIO) mice: body weight gain; type: in vivo
Protocol: Four weeks before drug treatments, C57BI/6 male mice (7 weeks)) (N=10-12 animals in each group) were put on high fat diet (HFD) and their day-night cycle reversed with lights On/Off at 2000/0800 hour. Experimental animals were conditioned to treatment by daily injections (s.c.) of 0.1 ml vehicle and acclimatized to handling by weighing them twice a week one week before start of drug administrations. The day before start of experiment, mice were stratified into groups with similar body weight (BW) and the next day groups of stratified mice were treated (b.i.d.; s.c.) with ZP2669 (SEQ ID NO: 4) (500 nmol/kg) or vehicle (Acetate-buffer). ZP2669 (SEQ ID NO: 4) was given in isotonic acetate buffer (pH 4.8; 2.5 μl/g BW). […] Body weights were recorded daily and used to administer the body weight-corrected doses of peptide throughout the study. […] Blood plasma samples were stored at −80° C. until analyzed for cholesterol, HDL and LDL using commercially available kits. Body weight gains throughout the treatment period were calculated for each animal by subtracting its weight at the initiation of treatment.
The effects of treatment on body weight gain and cholesterols were assessed by 2-way ANOVA with repeated measures and Bonferoni post-hoc analyses, using GraphPad Prism version 4. […]

db/db mice = test: Oral glucose tolerance test (OGTT) in db/db mice; type: in vivo; conditions: 45 nmol/kg i.p.
Protocol: Db/db mice were fasted overnight and an initial blood sample (fasting blood glucose level) taken just before administration (i.p.) of vehicle (Acetate buffer, 20 mM acetic acid, 250 mM mannitol, pH 5.0) or the test compound ZP2669 (SEQ ID NO: 4) (45 nmol/kg in acetate buffer). The animals were kept fasted during the experiment to prevent confounding food intake. Fifteen minutes later an oral dose of glucose (1 g/kg in 5 ml/kg) was given and BG levels were measured at t=30 min, t=60 min, t=120 min and t=240 min.
Difference from baseline (t=0) was calculated for each time point and AUC0-240 min values were determined. Statistical analyses of AUC values by one-way ANOVA and Dunnetts post-hoc analyses were performed with GraphPad Prism version 4. Differences were considered significant at the p<0.05 level.

T1 sequence (P43220 24-463): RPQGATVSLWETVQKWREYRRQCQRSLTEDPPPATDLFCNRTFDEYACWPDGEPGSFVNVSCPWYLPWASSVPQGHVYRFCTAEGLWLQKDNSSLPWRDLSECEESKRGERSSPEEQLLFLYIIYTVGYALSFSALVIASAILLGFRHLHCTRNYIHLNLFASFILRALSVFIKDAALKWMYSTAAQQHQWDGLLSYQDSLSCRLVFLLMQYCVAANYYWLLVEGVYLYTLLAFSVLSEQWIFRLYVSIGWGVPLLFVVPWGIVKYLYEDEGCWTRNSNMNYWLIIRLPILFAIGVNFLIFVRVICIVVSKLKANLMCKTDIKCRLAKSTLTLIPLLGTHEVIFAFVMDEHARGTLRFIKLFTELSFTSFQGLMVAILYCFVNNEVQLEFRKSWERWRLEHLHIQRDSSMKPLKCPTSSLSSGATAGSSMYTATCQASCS

CC(C)C[C@H](NC(=O)[C@H](CCCCN)NC(=O)[C@H](CC(C)C)NC(=O)[C@H](Cc1c[nH]c2ccccc12)NC(=O)[C@H](CCCNC(=N)N)NC(=O)[C@@H](NC(=O)[C@H](Cc1ccccc1)NC(=O)[C@H](CC(=O)O)NC(=O)[C@H](CCCNC(=N)N)NC(=O)[C@H](C)NC(=O)[C@H](C)NC(=O)[C@H](CCCCN)NC(=O)[C@H](CO)NC(=O)[C@H](CC(=O)O)NC(=O)[C@H](CC(C)C)NC(=O)[C@H](Cc1ccc(O)cc1)NC(=O)[C@H](CCCCN)NC(=O)[C@H](CO)NC(=O)[C@H](Cc1ccc(O)cc1)NC(=O)[C@H](CC(=O)O)NC(=O)[C@H](CO)NC(=O)[C@@H](NC(=O)[C@H](Cc1ccccc1)NC(=O)[C@@H](NC(=O)CNC(=O)[C@H](CCC(N)=O)NC(=O)[C@H](CO)NC(=O)[C@@H](N)Cc1c[nH]cn1)[C@@H](C)O)[C@@H](C)O)C(C)C)C(=O)N[C@@H](C)C(N)=O [ZP2668] (H-HSQGTFTSDYSKYLDSKAARDFVRWLKLA-NH2)
EC50 (human GLP-1-R; HEK293 cells expressing human GLP-1-R, cAMP, 15 min at 37° C., read-out: GLP-1R EC50): 0.08 nM
EC50 [1]: 101 nM
Lipolysis potency relative to OXM ([1]; primary adipocyte cultures): in the same order of magnitude as OXM

CC(C)C[C@H](NC(=O)[C@H](CC(C)C)NC(=O)[C@H](Cc1c[nH]c2ccccc12)NC(=O)[C@H](CCC(N)=O)NC(=O)[C@@H](NC(=O)[C@H](Cc1ccccc1)NC(=O)[C@H](CC(=O)O)NC(=O)[C@H](Cc1c[nH]cn1)NC(=O)[C@H](C)NC(=O)[C@H](C)NC(=O)[C@H](CCCCN)NC(=O)[C@H](CO)NC(=O)[C@H](CC(=O)O)NC(=O)[C@H](CC(C)C)NC(=O)[C@H](Cc1ccc(O)cc1)NC(=O)[C@H](CCCCN)NC(=O)[C@H](CO)NC(=O)[C@H](Cc1ccc(O)cc1)NC(=O)[C@H](CC(=O)O)NC(=O)[C@H](CO)NC(=O)[C@@H](NC(=O)[C@H](Cc1ccccc1)NC(=O)[C@@H](NC(=O)CNC(=O)[C@H](CCC(N)=O)NC(=O)[C@H](CO)NC(=O)[C@@H](N)Cc1c[nH]cn1)[C@@H](C)O)[C@@H](C)O)C(C)C)C(=O)N[C@@H](CCCNC(=N)N)C(=O)N[C@@H](C)C(N)=O [Compound L006-0172] (H-HSQGTFTSDYSKYLDSKAAHDFVQWLLRA-NH2)
EC50 (human GLP-1-R; read-out: GLP-1R EC50 (nM), crude peptides marked *): 21 nM

Exendin-4 [reference compound]
GLP-1R agonism (human GLP-1-R; result in words): very potent GLP-1R agonist
Effect on lipolysis ([1]; primary adipocyte cultures, result in words): no effect
Stimulation of lipolysis EC50 (nM) ([1]; primary rat adipocyte cultures, 60 min at 37° C.): No effect

CSCC[C@H](NC(=O)[C@H](CC(C)C)NC(=O)[C@H](Cc1c[nH]c2ccccc12)NC(=O)[C@H](CCC(N)=O)NC(=O)[C@@H](NC(=O)[C@H](Cc1ccccc1)NC(=O)[C@H](CC(=O)O)NC(=O)[C@H](CCC(N)=O)NC(=O)[C@H](C)NC(=O)[C@H](C)NC(=O)[C@H](CCCCN)NC(=O)[C@H](CO)NC(=O)[C@H](CC(=O)O)NC(=O)[C@H](CC(C)C)NC(=O)[C@H](Cc1ccc(O)cc1)NC(=O)[C@H](CCCCN)NC(=O)[C@H](CO)NC(=O)[C@H](Cc1ccc(O)cc1)NC(=O)[C@H](CC(=O)O)NC(=O)[C@H](CO)NC(=O)[C@@H](NC(=O)[C@H](Cc1ccccc1)NC(=O)[C@@H](NC(=O)CNC(=O)[C@H](CCC(N)=O)NC(=O)[C@H](CO)NC(=O)[C@@H](N)Cc1c[nH]cn1)[C@@H](C)O)[C@@H](C)O)C(C)C)C(=O)N[C@@H](CC(N)=O)C(=O)N[C@H](C(N)=O)[C@@H](C)O [ZP2667] (H-HSQGTFTSDYSKYLDSKAAQDFVQWLMNT-NH2)
EC50 [1]: 0.75 nM
Lipolysis potency relative to OXM ([1]; primary adipocyte cultures): 240 times
Lipolysis potency relative to glucagon ([1]; primary adipocyte cultures): 8 times

PYY(3-36): internal positive control in the food intake test, anorectic effect [reference compound]
Effect on food intake during the first hour (C57BI/6 mice): showed an anorectic effect

CC(C)C[C@H](NC(=O)[C@H](CC(C)C)NC(=O)[C@H](Cc1c[nH]c2ccccc12)NC(=O)[C@H](CCC(=O)O)NC(=O)[C@@H](NC(=O)[C@H](Cc1ccccc1)NC(=O)[C@H](CC(=O)O)NC(=O)[C@H](Cc1c[nH]cn1)NC(=O)[C@H](C)NC(=O)[C@H](C)NC(=O)[C@H](CCCCN)NC(=O)[C@H](CO)NC(=O)[C@H](CC(=O)O)NC(=O)[C@H](CC(C)C)NC(=O)[C@H](Cc1ccc(O)cc1)NC(=O)[C@H](CCCCN)NC(=O)[C@H](CO)NC(=O)[C@H](Cc1ccc(O)cc1)NC(=O)[C@H](CC(=O)O)NC(=O)[C@H](CO)NC(=O)[C@@H](NC(=O)[C@H](Cc1ccccc1)NC(=O)[C@@H](NC(=O)CNC(=O)[C@H](CCC(N)=O)NC(=O)[C@H](CO)NC(=O)[C@@H](N)Cc1c[nH]cn1)[C@@H](C)O)[C@@H](C)O)C(C)C)C(=O)N[C@@H](CCCNC(=N)N)C(=O)N[C@@H](C)C(N)=O [ZP2669] (H-HSQGTFTSDYSKYLDSKAAHDFVEWLLRA-NH2)
Effect on HDL/LDL ratios [2]: significant compared to vehicle; also recorded: significant effect
Effect on blood concentration of LDL cholesterol [2]: significant compared to vehicle; also recorded: significant effect
Effect on body weight gain ([3]; 500 nmol/kg b.i.d. s.c., 28 days, high fat diet): decreased body weight gain to a level similar to that observed with chow feeding
Effect on fat deposition ([3]; 4 weeks treatment of DIO mice): significantly decreased fat deposition
Effect on food intake during the first hour (C57BI/6 mice): significantly (P<0.05) decreased food intake
Improvement of glucose tolerance (db/db mice; 15 min before oral glucose 1 g/kg, AUC0-240 min): 77.1%
Effect on oral glucose tolerance (db/db mice; diabetic db/db mice, result in words): significantly (P<0.01) improved glucose tolerance
EC50 [1]: 4.6 nM
Lipolysis potency relative to OXM ([1]; primary adipocyte cultures): 40 times
Lipolysis potency relative to glucagon ([1]; primary adipocyte cultures): equipotent with glucagon
